In patent publication US20250085273A1, “NOVEL RAPID DRUG DISCOVERY FOR SEPSIS AND AGENTS FOR USE AS SEPSIS THERAPY” (priority 2023, published 2025):
Like-named read-outs stand apart in the source and are kept apart here.

Experiments:
[1] = test system: 5-dpf zebrafish challenged with K. Pneumoniae LPS (45 μg/mL); assay: Challenge with K. Pneumoniae LPS (45 μg/mL), 5-dpf zebrafish; format: in vivo, Danio rerio
Method: These tests followed the same methods described in the 5-dpf zebrafish confirmatory testing, but K. Pneumoniae LPS (45 μg/mL final in well concentration) was used instead of P. aeruginosa LPS.

[2] = test system: 3-dpf Zebrafish Embryos Challenged with LPS (P. aeruginosa 60 μg/mL); format: in vivo, Danio rerio; settings: P. aeruginosa LPS 60 μg/mL, compound 10 μM; for Percent Rescue (Mort + Tail Edema): 3-dpf embryos, n=16; for Percent Rescue (Mort + Tail Edema) / rescue of tail edema and mortality (sepsis rescue rate) at 3-dpf: 24 hours; for 3 dpf Embryos Percent Rescue (Mort + Tail Edema): initial 3-dpf screen shown for reference
Procedure, shortened: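 3-dpf PTU-treated AB zebrafish embryos exposed to 60 μg/mL P. aeruginosa LPS plus 10 μM compound (final) at 28.5 °C, n=16 per compound. Tail edema and mortality scored at 6 and 24 h post exposure; rescue judged against LPS-only controls at 24 h.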

[3] = test system: 5-dpf zebrafish larvae challenged with P. aeruginosa LPS 60 μg/mL; format: in vivo, Danio rerio; settings: compound 10 μM; for 5 dpf Embryos Percent Rescue (Mort + Tail Edema): 5-dpf larvae
[4] = test system: zebrafish (4 dpf pre-treated, LPS exposure at 5-dpf) challenged with P. aeruginosa LPS 60 μg/mL; format: in vivo, Danio rerio; settings: for Pre-Treatment Rescue (n = 16): 24-hour drug pre-treatment; for Pre-Treatment Rescue (n = 16) / No Pre-Treatment Rescue (n = 16): P. aeruginosa LPS 60 μg/mL; for No Pre-Treatment Rescue (n = 16): no 24-hour drug pre-treatment; for 24 hour Tail Edema, No-Drug Pretreatment / 24 Hour Mortality and Tail Edema, Drug Pretreatment / 24 Hour Mortality, Drug Pretreatment / 24 hour Tail Edema, Drug Pretreatment / 24 Hour Mortality and Tail Edema, No-Drug Pretreatment / 24 Hour Mortality, No Drug Pretreatment: number of n = 16 fish; for 24 hour Tail Edema, No-Drug Pretreatment: 10 μM drug with LPS 60 μg/mL; for 24 hour Tail Edema, No-Drug Pretreatment / 24 Hour Mortality and Tail Edema, No-Drug Pretreatment / 24 Hour Mortality, No Drug Pretreatment: no 24-hour pre-treatment; for 24 Hour Mortality and Tail Edema, Drug Pretreatment / 24 Hour Mortality, Drug Pretreatment: 24-hour 10 μM drug pre-treatment; for 24 hour Tail Edema, Drug Pretreatment: 24-hour 10 μM drug pre-treatment before LPS 60 μg/mL
Procedure, shortened: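 PTU-treated 4 dpf zebrafish embryos received a 24-hour drug pre-treatment at 28.5 °C, alongside an untreated parallel group, before challenge at 5 dpf with P. aeruginosa LPS at 60 μg/mL. Tail edema and mortality were scored at 6 and 24 h post exposure, followed by a neurobehavioral test.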

[5] = biological target: hERG potassium ion channel current (IhERG) (Homo sapiens, UniProt Q12809); settings: cited from earlier work
hERG potassium ion channel current (IhERG), sequence (Q12809 whole entry): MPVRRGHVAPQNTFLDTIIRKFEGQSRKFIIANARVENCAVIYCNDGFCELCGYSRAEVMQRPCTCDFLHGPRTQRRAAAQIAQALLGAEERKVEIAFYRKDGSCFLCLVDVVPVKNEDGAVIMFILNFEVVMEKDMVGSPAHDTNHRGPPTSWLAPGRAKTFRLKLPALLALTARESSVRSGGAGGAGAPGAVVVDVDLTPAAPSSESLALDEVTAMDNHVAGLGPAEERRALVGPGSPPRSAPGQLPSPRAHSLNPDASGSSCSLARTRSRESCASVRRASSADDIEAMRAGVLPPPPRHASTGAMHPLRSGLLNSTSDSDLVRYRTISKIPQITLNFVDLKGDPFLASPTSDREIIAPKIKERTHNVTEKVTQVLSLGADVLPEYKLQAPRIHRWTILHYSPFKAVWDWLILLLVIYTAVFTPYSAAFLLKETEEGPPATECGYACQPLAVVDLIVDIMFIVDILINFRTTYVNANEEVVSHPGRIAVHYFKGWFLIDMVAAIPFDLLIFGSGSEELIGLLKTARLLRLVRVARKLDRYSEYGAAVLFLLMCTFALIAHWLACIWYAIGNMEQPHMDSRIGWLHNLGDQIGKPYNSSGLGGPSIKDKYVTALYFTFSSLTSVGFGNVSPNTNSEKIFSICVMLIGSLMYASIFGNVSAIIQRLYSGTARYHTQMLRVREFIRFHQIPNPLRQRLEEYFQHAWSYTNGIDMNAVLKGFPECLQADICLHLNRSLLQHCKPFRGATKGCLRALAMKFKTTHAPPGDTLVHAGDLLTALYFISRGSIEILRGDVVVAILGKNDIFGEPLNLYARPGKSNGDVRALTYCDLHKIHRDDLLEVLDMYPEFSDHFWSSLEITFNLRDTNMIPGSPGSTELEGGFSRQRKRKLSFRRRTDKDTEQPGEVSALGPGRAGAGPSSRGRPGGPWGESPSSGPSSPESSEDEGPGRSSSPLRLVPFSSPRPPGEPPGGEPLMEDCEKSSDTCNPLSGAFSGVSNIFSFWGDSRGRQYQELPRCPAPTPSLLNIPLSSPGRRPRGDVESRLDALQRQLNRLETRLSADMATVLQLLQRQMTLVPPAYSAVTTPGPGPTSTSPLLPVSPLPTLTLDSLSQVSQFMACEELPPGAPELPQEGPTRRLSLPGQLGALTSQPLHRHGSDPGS

[6] = test system: larval zebrafish locomotor behavior; format: in vivo
Source text: This assay is a modified version of the larval zebrafish light dark transition assay with an added UV light (wavelength=295 nm) phase to capture any compound specific neurological effects to UV light. (Basnet et al., 2019, Kokel et al., 2013, Peng et al., 2016). The light period assesses deviations from normal locomotor behavior while the rapid transition to dark provides a measure of stress response by identifying any deviations from the normal heightened locomotor activity caused by the transition to dark. The neurobehavioral assay used a custom trial control script created by Noldus Ethovision XT 15, and it was executed in a Noldus DanioVision system. Zebrafish larvae in microplates were allowed to habituate in the DanioVision system for 5 minutes under white light conditions prior to the start of the test. The neurobehavioral assay consisted of three phases: a 3-minute light phase (white light), a 3-minute dark phase (no light) and a 5 second UV phase (UV light only). The Danio Vision system captured larval zebrafish movement throughout this assay at 30 frames per second.
(§1) LC50s for the LPS tests were determined using the Trimmed Spearmen-Karber method (Hamilton et al., 1977). The tail edema and mortality data from the initial and confirmatory drug testing was analyzed using GraphPad Prism 9 using Fisher's Exact Test. Each drug treatment group was compared pairwise with the on-board positive control group on each test plate. Statistical significance was determined with values of p≤0.05. Neurological behavioral testing data was analyzed by Ethovision software that produced an activity analysis profile per frame for each well of the 96 well plates. Any dead embryos were removed from the data set, and the remaining data set was imported into Excel. The offset function in Excel was used to average the percentage of pixel change per 0.1 s for each plate. […] The behavioral data was then statistically analyzed by drug per phase using a 2 tailed t-test to determine statistical significance p≤0.01.

[7] = biological target: human recombinant 5-HT2A (Homo sapiens, UniProt P28223); settings: cited from earlier work
human recombinant 5-HT2A, sequence (P28223 whole entry): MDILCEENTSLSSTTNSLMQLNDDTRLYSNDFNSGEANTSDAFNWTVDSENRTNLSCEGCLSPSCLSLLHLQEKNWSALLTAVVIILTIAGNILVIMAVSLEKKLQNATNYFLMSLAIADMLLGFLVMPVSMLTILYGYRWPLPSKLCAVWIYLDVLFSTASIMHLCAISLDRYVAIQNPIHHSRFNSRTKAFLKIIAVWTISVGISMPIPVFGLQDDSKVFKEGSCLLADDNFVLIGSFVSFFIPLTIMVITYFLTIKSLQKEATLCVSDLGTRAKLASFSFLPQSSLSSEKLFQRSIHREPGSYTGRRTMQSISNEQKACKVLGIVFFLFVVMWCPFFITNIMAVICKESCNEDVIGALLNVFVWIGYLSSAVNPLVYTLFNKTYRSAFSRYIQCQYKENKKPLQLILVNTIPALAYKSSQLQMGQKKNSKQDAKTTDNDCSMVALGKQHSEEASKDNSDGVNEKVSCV

[8] = biological target: T1, human recombinant 5-HT2C (Homo sapiens, UniProt P28335); settings: cited from earlier work
T1 sequence (P28335 33-458): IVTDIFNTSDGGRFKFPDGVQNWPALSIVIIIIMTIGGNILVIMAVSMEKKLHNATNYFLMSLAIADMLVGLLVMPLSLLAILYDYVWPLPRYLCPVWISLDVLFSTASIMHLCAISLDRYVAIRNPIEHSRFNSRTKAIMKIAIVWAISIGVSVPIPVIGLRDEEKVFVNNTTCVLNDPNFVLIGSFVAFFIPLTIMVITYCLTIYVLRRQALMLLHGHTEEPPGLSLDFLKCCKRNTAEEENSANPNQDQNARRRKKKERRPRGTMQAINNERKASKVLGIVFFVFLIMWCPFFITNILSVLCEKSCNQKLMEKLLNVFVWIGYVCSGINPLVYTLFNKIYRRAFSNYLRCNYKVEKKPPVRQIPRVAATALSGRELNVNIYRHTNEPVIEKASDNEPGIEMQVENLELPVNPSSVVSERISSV

[9] = biological target: 5-HT2B (Homo sapiens, UniProt P41595); settings: cited from earlier work
5-HT2B, sequence (P41595 whole entry): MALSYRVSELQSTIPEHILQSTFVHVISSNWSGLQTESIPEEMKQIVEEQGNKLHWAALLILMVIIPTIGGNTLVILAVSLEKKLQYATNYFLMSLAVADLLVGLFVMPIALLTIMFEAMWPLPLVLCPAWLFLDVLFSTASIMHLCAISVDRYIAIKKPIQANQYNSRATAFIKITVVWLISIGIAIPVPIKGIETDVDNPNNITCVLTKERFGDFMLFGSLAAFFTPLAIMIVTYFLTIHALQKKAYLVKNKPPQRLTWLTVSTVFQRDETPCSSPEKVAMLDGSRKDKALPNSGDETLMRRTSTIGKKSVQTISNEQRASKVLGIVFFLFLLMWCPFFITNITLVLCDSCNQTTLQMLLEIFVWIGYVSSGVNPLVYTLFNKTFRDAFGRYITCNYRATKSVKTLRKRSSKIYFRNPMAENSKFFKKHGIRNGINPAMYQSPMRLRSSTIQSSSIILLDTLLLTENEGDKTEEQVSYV

[10] = test system: larval zebrafish exposed to Pseudomonas aeruginosa 60 μg/mL lipopolysaccharide (LPS); assay: Zebrafish endotoxicity/sepsis model drug screening, statements without larval stage; format: in vivo, Danio rerio
Source text: To identify potential sepsis drug candidates, an optimized larval zebrafish model of endotoxicity/sepsis was used to screen commercial libraries of U.S. Food and Drug Administration (FDA)-approved drugs and other active pharmaceutical ingredients (API) known to affect pathways implicated in the initiation and progression of sepsis in humans (i.e., inflammation, mitochondrial dysfunction, coagulation, and apoptosis). In this model, endotoxicity was induced in 3- and 5-day post fertilization larval zebrafish (characterized by mortality and tail fin edema (vascular leakage)) by immersion exposure to Pseudomonas aeruginosa 60 μg/mL lipopolysaccharide (LPS) for 24 hours, then screened for the rescue potential of 644 selected drugs simultaneously with LPS at 10 μM. After LPS exposure, a neurobehavioral assay (light-dark test) was performed to further evaluate rescue from endotoxicity and to determine possible off-target drug side effects.

[11] = test system: zebrafish exposed to P. aeruginosa LPS; assay: Model compound testing in the optimized zebrafish sepsis model (varying LPS dose ranges); format: in vivo, Danio rerio
Method: Three sources of LPS were evaluated: E. coli 0111:B4, P. aeruginosa Sigma L9143, and K. pneumoniae. E. coli 0111:B4 LPS was selected as the reference LPS used by Philip et al. (2017). P. aeruginosa LPS is commonly associated with infections in hospitals, accounting for an estimated 32,600 cases and resulting in an estimated 2,700 deaths in 2017 (CDC Report 2019). P. aeruginosa infections are also a common cause of sepsis in both patients with severe burns and immunocompromised patients. K. pneumoniae LPS has military relevance related to battlefield injury infections (Kiley et al., 2021). Initial range finding LC50 tests with larval zebrafish were conducted for each LPS strain at both 3-dpf and 5-dpf. […] (E. coli 0111:B4 was also tested at higher concentrations, 400, 800, and 1000 μg/mL due a lack of toxicity within the initial dose range.) Well plates were then covered with parafilm and placed into an incubator at 28.5° C. for 24 hours. After 6 and 24 hours, the plates were removed and scored for mortality, tail edema, and ROS production. The tail edema endpoint evaluates vascular leakage from caudal fin in response to LPS exposure (FIG. 2). ROS production was determined as described by Philip et al. (2017) by adding 2,7-dichloroflurescein diacetate (100 μM) to the wells containing the zebrafish larvae and incubating them in a 100% dark photoperiod incubator at 28.5° C. for one hour. Florescent images of the incubated zebrafish were then captured with a Keyence BZ-X710 fluorescent microscope using 10× objective with a GFP filter and fixed 1/15 second exposure for all imaging. […] Results from the LPS toxicity testing and endpoint screening were used to develop the optimized testing procedure through evaluation in selected model compounds, as described in the next section and in the results.
The optimized zebrafish sepsis model was evaluated against compounds previously shown to have efficacy in previous zebrafish sepsis models: fasudil, hydrocortisone, dexamethasone, and fisetin. Fasudil, an anti-vascular leakage compound (inhibitor of the RhoA/Rho-kinase pathway) was shown by Philip et al. (2017) to rescue zebrafish from LPS-induced mortality, ROS production, and tail fin edema. Fasudil also rescued LPS-induced vascular leakage in murine models of experimental sepsis (Li et al., 2010) and reduced acute lung injury in septic rats through inhibition of the Rho/ROCK signaling pathway (Wang et al., 2018). […] Endpoints evaluated with model compounds included mortality, tail edema, and ROS at 6- and 24-hours post exposure to varying dose ranges of LPS.
as §1, with “Excel.” for “Excel. The offset function in Excel was used to average the percentage of pixel change per 0.1 s for each plate.”

[12] = biological target: D2 receptor (Homo sapiens, UniProt P14416); settings: read-out: IC50 for D2 receptor; cited from earlier work
D2 receptor, sequence (P14416 whole entry): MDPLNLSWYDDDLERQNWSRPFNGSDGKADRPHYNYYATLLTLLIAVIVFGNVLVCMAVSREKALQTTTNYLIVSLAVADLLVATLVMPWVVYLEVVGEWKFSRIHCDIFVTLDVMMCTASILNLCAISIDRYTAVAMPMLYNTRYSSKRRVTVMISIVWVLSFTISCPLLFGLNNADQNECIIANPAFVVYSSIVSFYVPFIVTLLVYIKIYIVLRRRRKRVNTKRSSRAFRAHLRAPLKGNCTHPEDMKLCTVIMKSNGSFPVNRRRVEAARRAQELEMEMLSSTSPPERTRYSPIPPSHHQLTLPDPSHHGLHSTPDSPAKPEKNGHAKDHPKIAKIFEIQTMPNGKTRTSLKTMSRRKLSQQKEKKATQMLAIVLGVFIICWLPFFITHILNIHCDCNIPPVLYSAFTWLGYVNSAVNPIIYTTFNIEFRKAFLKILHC

Structure (SMILES) | rescue of tail edema and mortality [1] | Percent Rescue (Mort + Tail Edema) [2] | rescue of tail edema and mortality (sepsis rescue rate) at 3-dpf [2] | 3 dpf Embryos Percent Rescue (Mort + Tail Edema) [2] | 5 dpf Embryos Percent Rescue (Mort + Tail Edema) [3] | rescue of tail edema and mortality (sepsis rescue rate) at 5-dpf [3] | Pre-Treatment Rescue (n = 16) [4] | No Pre-Treatment Rescue (n = 16) [4] | 24 hour Tail Edema, No-Drug Pretreatment [4] | 24 Hour Mortality and Tail Edema, Drug Pretreatment [4] | 24 Hour Mortality, Drug Pretreatment [4] | 24 hour Tail Edema, Drug Pretreatment [4] | 24 Hour Mortality and Tail Edema, No-Drug Pretreatment [4] | 24 Hour Mortality, No Drug Pretreatment [4] | other results
O=C(c1ccc(F)cc1)C1CCN(CCn2c(=O)[nH]c3ccccc3c2=O)CC1 [Compound 88, Ketanserin] | 88% | 100% | 100% | 100% | 81% | 81% | 100% | 100% | 0 fish | 0 fish | 0 fish | 0 fish | 0 fish | 0 fish | rescue of tail edema and mortality (sepsis rescue rate) at 5-dpf ([3]; listed as ketanserin): 100%; IC50 [5]: 110 nM
CCCCCNC(=N)N/N=C/c1c[nH]c2ccc(OC)cc12 [Compound 400, Tegaserod (maleate)] | 100% | 100% | 100% | 100% | 100% | 100% | 100% | 88% | 1 fish | 0 fish | 0 fish | 0 fish | 2 fish | 1 fish | light/dark neurobehavioral testing, difference from negative controls ([6]; after LPS exposure, with and without drug pre-treatment): little to no difference from negative controls; Post Test Behavioral Assay ([6]; after pre-treatment test LPS exposure): Normal; pKi 5-HT2A [7]: 7.5; pKi 5-HT2C [8]: 7.0; pKi 5-HT2B [9]: 8.4
C[C@]12CCC(=O)C=C1CC[C@@H]1[C@@H]2[C@@H](O)C[C@@]2(C)[C@H]1CC[C@]2(O)C(=O)CO [hydrocortisone] |  |  |  |  |  |  |  |  |  |  |  |  |  |  | rescue at 6-hour exposure time point ([10]; 6-hour exposure time point): showed rescue early; rescue by 24 hours post exposure ([10]; 24 hours post exposure): failed to show any level of rescue; efficacy (mortality) at 6 hours ([11]; 6 hours post LPS exposure): some efficacy noted; mortality at 24 hours post exposure ([11]; 24 hours post LPS exposure): increased mortality over no treatment
CN1CCN(CCCN2c3ccccc3Sc3ccc(C(F)(F)F)cc32)CC1 [Trifluoperazine] |  |  |  |  |  |  |  |  |  |  |  |  |  |  | IC50 [12]: 1.2 nM
